Assay results published in patent publication US5968929A, “Piperazino derivatives as neurokinin antagonists” (Schering Corporation, priority 1997, dated 1999).
pKi: −log10 of the molar value.

Key:
[1] = biological target: T1, human neurokinin 1 (NK1) receptor (Homo sapiens, UniProt P25103); test: Neurokinin receptor binding assay, NK1 ([3H]-Substance P, CHO cell membranes); details: competition with [3H]-Substance P, Cheng and Prusoff
T1 construct: expressed in transfected cells; host or cells: Chinese hamster ovary (CHO) cells, membranes
Experimental: (§1) Neurokinin Receptor Binding Assay(s)
(§2) Chinese Hamster ovary (CHO) cells transfected with the coding regions for the human neurokinin 1 (NK1) of the human neurokinin 2 (NK2) receptors are grown in Dulbecco's minimal essential medium supplemented with 10% fetal calf serum, 0.1 mM non-essential amino acids, 2 mM glutamine, 100 units/ml of penicillin and streptomycin, and 0.8 mg of G418/ml at 37° C. in a humidified atmosphere containing 5% CO2.
(§3) Cells are detached from T-175 flasks with a sterile solution containing 5 mM EDTA in phosphate buffered saline. Cells are harvested by centrifugation and washed in RPMI media at […] for 5 minutes. The pellet is resuspended in Tris-HCl(pH7.4) containing 1 uM phosphoramidon and 4 ug/ml of chymostatin at a cell density of 30×10^6 cells/ml. The suspension is then homogenized in a Brinkman Polytron (setting 5) for 30-45 seconds. The homogenate is centrifuged at 800×g for 5 min at 4° C. to collect unbroken cells and nuclei. The supernatant is centrifuged in a Sorvall RC5C at 19,000 rpm ([…]) for 30 min at 4° C. The pellet is resuspended, an aliquot is removed for a protein determination (BCA) and washed again. The resulting pellet is stored at -80° C.
(§4) Binding is initiated by the addition of 100 μl of membrane (10-20 μg) containing the human NK-1 or NK-2 receptor in a final volume of 200 μl. After 40 minutes at room temperature, the reaction is stopped by rapid filtration onto Whatman GF/C filters which have been presoaked in 0.3% polyethylenimine. Filters are washed 2 times with 3 ml of 50 mM Tris-HCl (pH7.4). Filters are added to 6 mls of Ready-Safe liquid scintillation cocktail and quantified by liquid scintillation spectrometry in a LKB 1219 RackBeta counter. Non-specific binding is determined by the addition of either 1 μM of CP-99994 (NK1) or 1 μM SR-48968 (NK2) (both synthesized by the chemistry department of Schering-Plough Research Institute).

[2] = biological target: T2, human neurokinin 2 (NK2) receptor (Homo sapiens, UniProt P21452); test: Neurokinin receptor binding assay, NK2 ([3H]-Neurokinin A, CHO cell membranes); details: competition with [3H]-Neurokinin A, Cheng and Prusoff
T2 construct: expressed in transfected cells; host or cells: Chinese hamster ovary (CHO) cells, membranes
T2 sequence (P21452 1-398): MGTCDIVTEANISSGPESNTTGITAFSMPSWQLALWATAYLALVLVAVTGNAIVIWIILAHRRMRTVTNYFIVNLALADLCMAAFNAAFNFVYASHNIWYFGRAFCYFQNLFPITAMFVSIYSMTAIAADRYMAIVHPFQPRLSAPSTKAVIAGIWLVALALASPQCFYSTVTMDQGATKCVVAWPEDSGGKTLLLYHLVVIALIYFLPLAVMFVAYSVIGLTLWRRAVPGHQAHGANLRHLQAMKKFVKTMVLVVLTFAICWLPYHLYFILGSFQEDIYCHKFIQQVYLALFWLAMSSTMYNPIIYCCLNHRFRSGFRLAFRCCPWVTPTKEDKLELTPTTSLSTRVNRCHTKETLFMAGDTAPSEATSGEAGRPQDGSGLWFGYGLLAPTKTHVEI
Experimental: as §1, §2, §3, §4

T1 sequence (P25103 whole entry): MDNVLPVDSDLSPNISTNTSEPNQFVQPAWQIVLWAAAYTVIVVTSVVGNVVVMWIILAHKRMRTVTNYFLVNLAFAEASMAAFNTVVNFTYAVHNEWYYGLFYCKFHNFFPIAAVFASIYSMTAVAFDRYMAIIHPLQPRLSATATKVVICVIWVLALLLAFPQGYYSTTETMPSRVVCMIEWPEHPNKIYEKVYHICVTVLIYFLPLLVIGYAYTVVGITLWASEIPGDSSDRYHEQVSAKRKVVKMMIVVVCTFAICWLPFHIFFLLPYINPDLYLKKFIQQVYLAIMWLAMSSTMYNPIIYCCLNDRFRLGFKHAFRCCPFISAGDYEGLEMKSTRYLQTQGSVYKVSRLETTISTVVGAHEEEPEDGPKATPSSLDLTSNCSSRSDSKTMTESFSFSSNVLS

| pKi [1] | pKi [2] | SMILES |
| --- | --- | --- |
| 7.35 | 7.85 | Cc1cc(C)cc(C(=O)N2CCN(C(=O)CCN3C[C@@H]4C[C@H]3CN4C(=O)[C@H](Cc3ccccc3)NC(=O)OC(C)(C)C)[C@H](c3ccc(Cl)c(Cl)c3)C2)c1 |
| 8.20 | 9.03 | CNC(=O)N[C@H](Cc1ccccc1)C(=O)N1C[C@@H]2C[C@H]1CN2CCC(=O)N1CCN(C(=O)c2cc(C)cc(C)c2)C[C@H]1c1ccc(Cl)c(Cl)c1 [35 (R = --CH3)] |
| 7.47 | 7.62 | Cc1cc(C)cc(C(=O)N2CCN(C(=O)CCN3C[C@@H]4C[C@H]3CN4C(=NC#N)Nc3ccccc3)[C@H](c3ccc(Cl)c(Cl)c3)C2)c1 [Example 30] |

Second part, the compound before the results:

| SMILES | pKi [1] | pKi [2] |
| --- | --- | --- |
| Cc1cc(C)cc(C(=O)N2CCN(C(=O)CCN3C[C@@H]4C[C@H]3CN4C(=O)[C@@H](N)Cc3cccs3)[C@H](c3ccc(Cl)c(Cl)c3)C2)c1 | 7.80 | 9.46 |
| Cc1cc(C)cc(C(=O)N2CCN(C(=O)CO[C@@H]3C[C@@H]4C[C@H]3CN4Cc3ccsc3)[C@H](c3ccc(Cl)c(Cl)c3)C2)c1 [Example 50, 2(R)-(3,4-Dichlorophenyl)-4-(3,5-dimethylbenzoyl)-1-[[[exo-2-(3-thienylmethyl)-1(S),4(S)-2-azabicyclo[2.2.1]heptan-5-yl)oxy]acetyl]piperazine] | 8.74 | 8.59 |
| CC(=O)Nc1ccc(CN2C[C@@H]3C[C@H]2C[C@H]3OCC(=O)N2CCN(C(=O)c3cc(C)cc(C)c3)C[C@H]2c2ccc(Cl)c(Cl)c2)cc1 [Example 51] | 8.82 | 8.36 |
| Cc1cc(C)cc(C(=O)N2CCN(C(=O)CO[C@H]3C[C@H]4CC[C@@H](C3)N4C(=O)OC(C)(C)C)[C@H](c3ccc(Cl)c(Cl)c3)C2)c1 [Example 56, (Endo)-1,1-dimethylethyl 3-[2-[2(R)-(3,4-dichlorophenyl)-4-(3,5-dimethylbenzoyl)-1-piperazinyl]-2-oxoethoxy]-8-aza[3.2.1]octane-8-carboxylate] | < 7.00 | 7.26 |
| CNC(=O)c1ccc(CN2[C@@H]3CC[C@H]2C[C@@H](OCC(=O)N2CCN(C(=O)c4cc(C)cc(C)c4)C[C@H]2c2ccc(Cl)c(Cl)c2)C3)cc1 [Example 58] | 7.72 | 7.24 |
| Cc1cc(C)cc(C(=O)N2CCN(C(=O)CN[C@H]3C[C@H]4CC[C@@H](C3)N4C(=O)OC(C)(C)C)[C@H](c3ccc(Cl)c(Cl)c3)C2)c1 [Example 67] | 6.80 | 8.03 |
